Measured values: patent publication US6436979B1 (priority 2000, dated 2002)
Like-named read-outs stand apart in the source and are kept apart here.

Test system: Phytophthora infestans
Format: in vivo
Conditions: tomato leaves infected next day with zoospore suspension, evaluated after 6 days, untreated control 89% infection
[1] = conc. in the spray liquor 0.06 ppm
[2] = conc. in the spray liquor 0.25 ppm

## COC(=O)N(OC)c1ccccc1COc1ccn(-c2ccc(Cl)cc2)n1 [Compound I.32]
[1]
  Efficacy in % of the untreated control: 10%
[2]
  Efficacy in % of the untreated control: 55%

## COC(=O)N(OC)c1ccccc1COc1ccn(-c2ccc(C)cc2)n1 [Compound I.38]
[1]
  Efficacy in % of the untreated control: 0%
[2]
  Efficacy in % of the untreated control: 33%

## CNC(=O)C(=NOC)c1ccccc1COc1cc(C)ccc1C [Compound III]
[1]
  Efficacy in % of the untreated control: 0%
[2]
  Efficacy in % of the untreated control: 33%

## CON=C(C(=O)OC)c1ccccc1COc1ccccc1C [Compound II]
[1]
  Efficacy in % of the untreated control: 10%

## CC(C)OC(=O)NC(C(=O)NC(C)c1nc2ccc(F)cc2s1)C(C)C (centres unmarked) [Compound IV/1]
[1]
  Efficacy in % of the untreated control: 21%
